According to PubChem BioAssay (NCI):
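Each compound was tested at five concentrations against cells in 96-well plates for 48 hours. At the GI50, growth is halved. TGI: total growth inhibition.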

Legend:
Experiment in all cases: NCI-60 cell line screen, 48 h
[1] = tested on: SW-620 colon
[2] = tested on: EKVX NSCLC
[3] = tested on: 786-0 renal
[4] = tested on: SF-295 CNS
[5] = tested on: MALME-3M melanoma
[6] = tested on: SF-268 CNS
[7] = tested on: HL-60(TB) leukemia
[8] = tested on: ACHN renal
[9] = tested on: LOX IMVI melanoma
[10] = tested on: K-562 leukemia

| Structure (SMILES) | TGI [1] [µM] | TGI [2] [µM] | TGI [3] [µM] | TGI [4] [µM] | TGI [5] [µM] | TGI [6] [µM] | TGI [7] [µM] | TGI [8] [µM] | TGI [9] [µM] | TGI [10] [µM] | GI50 [1] [µM] | GI50 [2] [µM] | GI50 [3] [µM] | GI50 [4] [µM] | GI50 [5] [µM] | GI50 [6] [µM] | GI50 [7] [µM] | GI50 [8] [µM] | GI50 [9] [µM] | GI50 [10] [µM] |
| --- | --- | --- | --- | --- | --- | --- | --- | --- | --- | --- | --- | --- | --- | --- | --- | --- | --- | --- | --- | --- |
| CCn1c2ccccc2c2ccc(C3C(C(=O)OC)=C(C)NC(C)=C3C(=O)OC)cc21 | > 100 | > 100 | > 100 | > 100 | 60.1 | > 100 | > 100 | > 100 | > 100 | > 100 |  |  |  |  |  |  |  |  |  |  |
| Cc1ccc(C)c(NC(=O)CC2SC(=Nc3ccccc3Cl)NC2=O)c1 (stereo not drawn) | > 100 | > 100 | > 100 | > 100 | > 100 | > 100 | > 100 | > 100 |  |  |  |  |  |  |  |  |  |  |  |  |
| Cc1nc2sccn2c1C(=O)NC(=O)Nc1ccc(Cl)cc1 | > 100 | > 100 | > 100 | > 100 | > 100 | > 100 | > 100 | > 100 | > 100 | > 100 |  |  |  |  |  |  |  |  |  |  |
| CCOC(=O)C(CNc1ccc(O)cc1)NC(=O)c1ccccc1 (stereo not drawn) | > 100 | > 100 | > 100 | > 100 | > 100 | > 100 | 73.3 | > 100 | > 100 | > 100 |  |  |  |  |  |  |  |  |  |  |
| CC1=C[C@H]2C[C@H](C)[C@H]3CC[C@H](C)[C@]4(C1)C(=O)C(O)=C(C)C(=O)[C@@]324 | > 100 | > 100 | > 100 | > 100 | 80.7 | > 100 | 33.1 | > 100 | 51.1 | 39.5 | 31.5 | 42.9 | 30.1 | > 100 | 23.3 | > 100 | 15.7 | 34.2 | 22.1 | 20 |
| COc1cc(C2C3=C(COC3=O)N(CCO)c3cc4c(cc32)OCO4)cc(OC)c1O (stereo not drawn) | > 50 | > 50 | > 50 | > 14.6 | > 50 | > 50 | 3.26 | > 50 | > 50 | > 50 | 1.71 | 4.36 | 2.02 | 1.47 | 1.96 | 2.18 | 1.32 | > 13.5 | 2.5 | 1.49 |
| O=C(C/C(CCC(=O)N(Cc1ccccc1)Cc1ccccc1)=N/Nc1ccc([N+](=O)[O-])cc1[N+](=O)[O-])c1ccccc1 | > 100 | > 100 | > 100 | > 100 | > 100 | > 100 | > 100 |  | > 100 | > 100 |  |  |  |  |  |  |  |  |  |  |
| COc1cccc(/C(C)=N/NC(=O)CSc2nc3ccccc3c(=O)n2CCc2ccc(S(N)(=O)=O)cc2)c1 | 7.5 | 33.9 | 3.95 | 16.3 | 4.62 | 7.32 | > 100 | 15.9 | 11.7 | > 100 | 2.77 | 5.81 | 1.47 | 4.02 | 1.98 | 2.68 | > 100 | 3.19 | 3.1 | 11.2 |
| CCS(=O)(=O)c1ccc(OC)c(Nc2ncc(-c3ccccc3Cl)o2)c1 | > 25 | > 25 | > 25 | > 25 | > 25 | > 25 | > 21.5 | > 25 | > 25 | > 25 | 8.38 | > 21.3 | > 17.4 | 9.43 | > 25 | 11.7 | 11.8 | > 19.1 | 9.15 | 11 |
| CCOC(=O)/C(=C/c1ccc(N(CCC#N)CCC#N)cc1C)NC(=O)/C=C/c1ccccc1 | > 100 | > 100 | > 100 | > 100 | > 100 | > 100 | > 100 | > 100 | > 100 | > 100 |  |  |  |  |  |  |  |  |  |  |
| NC(=S)N=Nc1c(O)c2ccccc2c2ccccc12 | 26.6 |  | 88.2 | 10.2 | 3.58 | 35.7 | 46 | > 100 | 11.1 | 28.3 | 3.44 |  | 31.7 | 3.01 | 1.96 | 10.2 | 20 | 8.07 | 2.81 | 5.98 |
| C=C(C)C(=O)O[C@@H]1C/C(C)=C\[C@H](OC(C)=O)C[C@](C)(O)/C=C2/OC(=O)C(COC(C)=O)=C21 | 1.93 | 2.07 | 6.03 | 23.9 | 0.979 |  | 0.0496 | 1.87 | 0.373 | 0.879 |  |  |  |  |  |  |  |  |  |  |
| COc1ccc2[nH]c3c(C)cc([N+](=O)[O-])c(C)c3c2c1 | > 100 | > 100 | > 100 | > 100 | 73.4 | > 100 | 50.4 | 63.1 |  | 44.3 |  |  |  |  |  |  |  |  |  |  |
| COc1cc(NCCN=C(N)NC(N)=NC(C)C)c2ncccc2c1 | > 100 |  | > 100 | > 100 | 6.71 | > 100 | 39.6 | > 100 | 94.8 | > 100 | 15.4 |  | > 88.8 | > 90.9 | 1.6 | 3.98 | 14.3 | > 100 | 20.1 | 10.7 |
| CC(=O)NNc1nc(C)c(C(=O)NNC(=O)C(=O)Nc2ccc([N+](=O)[O-])cc2C#N)s1 | > 100 | > 100 | > 100 |  | > 100 | > 100 | > 100 | > 100 | > 100 | > 100 |  |  |  |  |  |  |  |  |  |  |
| CCOC(=O)C1([Se]c2ccccc2)CCCC1=O (stereo not drawn) |  | 86.8 | 28.4 | > 100 | > 100 | 27.4 | 23.5 | 43.2 | 26.7 | > 100 |  |  |  |  |  |  |  |  |  |  |
| COc1cc2c(cc1C1=NC(C)(C)CO1)OCO2 | > 100 | > 100 | > 100 | > 100 | > 100 | > 100 | > 100 | > 100 |  | > 100 |  |  |  |  |  |  |  |  |  |  |
